{
  "source": "patent US6372894B1",
  "about": "“Cycolalkylated B-glucoside” (Nihon Shokuhin Kako Co., Ltd., priority 1999, dated 2002)",
  "key": {"[1]": {"molecular_target": "β-glucosidase derived from Aspergillus niger (Aspergillus niger, UniProt A2RAL4)", "test": "β-Glucosidase inhibition test (pNP-β-Glc), A. niger enzyme", "assay_type": "biochemical", "protocol": "(§1) β-Glucosidase inhibition test was performed as follows. 10 mM p-nitrophenyl-p-glucoside (100 μl, abbreviated as pNP-β-Glc hereinafter), 1 M sodium acetate buffer (pH 5.0, 50 μl), pure-water, and 100 mM inhibitor (10 μl) were taken into a short test tube so that the mixture should have a total volume of 800 μl, and preincubated at 40° C. for 5 minutes. After the incubation, the obtained mixture was added with 50 μl of enzyme solution diluted to a suitable concentration, and allowed to react at 40° C. After 10 minutes, the enzyme was inactivated by adding 500 μl of 1 M sodium carbonate to the obtained reaction mixture, and the absorbance at 405 nm was measured and used for calculation of the amount of free p-nitrophenol. As the inhibitor, cyclopropylmethyl-β-glucoside (CPAM-β-Glc), cyclopentyl-β-glucoside (CPE-β-Glc), and cyclopentylmethyl-β-glucoside (CPEM-β-Glc) all prepared by the methods of Examples 1 and 2 were used. As the β-glucosidase, chromatographically purified preparations derived from Aspergillus niger, Trichoderma viride, and Almond (all from SIGMA) were used."}, "[2]": {"molecular_target": "β-glucosidase derived from Trichoderma viride (Trichoderma viride, UniProt Q6UJY0)", "test": "β-Glucosidase inhibition test (pNP-β-Glc), T. viride enzyme", "assay_type": "biochemical", "protocol": "as §1"}, "[3]": {"test_system": "β-glucosidase derived from Almond", "test": "β-Glucosidase inhibition test (pNP-β-Glc), almond enzyme", "assay_type": "biochemical", "settings": "inhibitor concentration of 1.25 mM", "protocol": "as §1"}, "[4]": {"test_system": "pNP-β-Glc activity of rose petal crude enzyme solution", "test": "Inhibition test for rose crude enzyme", "assay_type": "biochemical, Rosa gybrida CV. Wendy", "protocol": "as §1\nOnly petals (about 70 g) were collected from about ten marketed roses (variety; Rosa gybrida CV. Wendy), added with acetone (500 ml) cooled to −20° C., and pulverized by a homogenizer while cooled with dry ice. The obtained pulverized mixture was filtered through a Buchner funnel put with a No. 2 filter paper sheet, and sufficiently washed with acetone at −20° C. The obtained filtrate was dried in a desiccator under reduced pressure (room temperature, 3 hours) to obtain 6 g of crude enzyme powder. This powder was added to 100 mM sodium phosphate buffer (pH 7.0, 120 ml) and stirred at 4° C. for 3 hours, and the insoluble matter was removed by centrifugation. The filtrate was subjected to ultrafiltration utilizing an ultrafiltration membrane PM-10 (Amicon) to finally afford 15 ml of crude enzyme solution.\nIn the same manner as in Example 3, the inhibition activity of the CPEM-β-Glc obtained in Example 2 for the pNP-β-Glc activity of the above crude enzyme solution was measured. […]"}, "lily cut flower": {"test_system": "lily cut flower", "test": "Aromatic substance formation inhibition effect in cut flowers, organoleptic test (lily)", "assay_type": "in vivo", "settings": "0.13% (w/v, 5 mM) aqueous solution, after one day, all of ten expert panelists, versus water", "protocol": "(§2) A 0.13% (w/v, 5 mM) aqueous solution of the CPEM-β-Glc obtained in Example 2 was prepared. The obtained aqueous solution (300 ml) was introduced into an Erlenmeyer flask, and lily, chrysanthemum, and gypsophila were put into it one for each. On the other hand, as control, the flowers were similarly put into water without the CPEM-β-Glc. After 1, 2 and 4 days, organoleptic test was performed by ten expert panelists as for the aroma emitted from these cut flowers."}, "chrysanthemum cut flower": {"test_system": "chrysanthemum cut flower", "test": "Aromatic substance formation inhibition effect in cut flowers, organoleptic test (chrysanthemum)", "assay_type": "in vivo", "settings": "0.13% (w/v, 5 mM) aqueous solution, after one day, all of ten expert panelists, versus water", "protocol": "as §2"}, "gypsophila cut flower": {"test_system": "gypsophila cut flower", "test": "Aromatic substance formation inhibition effect in cut flowers, organoleptic test (gypsophila)", "assay_type": "in vivo", "settings": "0.13% (w/v, 5 mM) aqueous solution, after one day, all of ten expert panelists, versus water", "protocol": "as §2"}, "[5]": {"test_system": "lily, chrysanthemum, and gypsophila cut flowers", "test": "Freshness of cut flowers in the aroma test", "assay_type": "in vivo", "settings": "0.13% (w/v, 5 mM) aqueous solution", "protocol": "as §2"}},
  "note": "pIC50: −log10 of the molar value.",
  "data": [
    {"smiles": "OCC1OC(OCC2CCCC2)C(O)C(O)C1O", "note": "(stereo not drawn) [CPEM-β-Glc, cyclopentylmethyl-β-glucoside]", "values": [
      {"measurement": "inhibition of β-glucosidase, in words", "setting": "[1]; A. niger enzyme, inhibitor concentration of 1.25 mM", "value": "relatively weak inhibition"},
      {"measurement": "pIC50", "setting": "[1]; A. niger β-glucosidase, concentration varied from 0 to 5 mM, read-out: 50% inhibition concentration", "value": 1.90},
      {"measurement": "inhibition of β-glucosidase, in words", "setting": "[2]; T. viride enzyme, inhibitor concentration of 1.25 mM", "value": "no inhibition"},
      {"measurement": "pIC50", "setting": "[2]; T. viride β-glucosidase, concentration varied from 0 to 5 mM, read-out: 50% inhibition concentration", "value": 1.94},
      {"measurement": "inhibition of β-glucosidase, in words", "setting": "[3]", "value": "strongly inhibited"},
      {"measurement": "inhibition activity", "setting": "[4]; at 3 mM", "value": "about 50%"},
      {"measurement": "inhibition activity", "setting": "[4]; at 4 mM", "value": "about 70%"},
      {"measurement": "inhibition activity", "setting": "[4]; at 5 mM", "value": "about 90%"},
      {"measurement": "aroma emitted from cut flowers, organoleptic test", "setting": "lily cut flower", "value": "distinctly reduced"},
      {"measurement": "aroma emitted from cut flowers, organoleptic test", "setting": "chrysanthemum cut flower", "value": "distinctly reduced"},
      {"measurement": "aroma emitted from cut flowers, organoleptic test", "setting": "gypsophila cut flower", "value": "distinctly reduced"},
      {"measurement": "freshness of the cut flowers, added versus not added", "setting": "[5]", "value": "No difference in freshness"}
    ]}
  ]
}
